Source: patent publication US12227482B2, “Compounds and compositions for the treatment of cancer” (The Regents of the University of California, priority 2016, dated 2025)

How the values were obtained:
Assay type in all cases: cell-based
Details in all cases: 72 hours treatment, cell survival by CellTiter-Glo, 2% fetal bovine serum
MelJuSo cells = assay: Cell viability (CellTiter-Glo ATP content) in MelJuSo cells
Description: (§1) Logarithmically growing A549, LOX and MelJuSo cells (ATCC) were plated in antibiotic-free RPMI medium (Coming) supplemented with 2% fetal bovine serum (Gemini Bio-products) at a density of 5,000 cells per well in clear-bottom 96-well plates. The next day cells were treated (triplicates) with increasing doses of a compound of the present disclosure (dissolved in DMSO) and DMSO vehicle controls (final DMSO concentration of 0.5%) for 72 hours and subsequently assessed for cell viability by measuring ATP content with CellTiter-Glo Luminescent Cell Viability Assay (Promega). Signal intensity was measured on a Glomax™ 96 Microplate Luminometer (Promega) and percent cell survival was calculated based on the reading of vehicle control cells set as 100%.

LOX cells = assay: Cell viability (CellTiter-Glo ATP content) in LOX cells
Description: as §1

A549 cells = assay: Cell viability (CellTiter-Glo ATP content) in A549 cells
Description: as §1

In the case of CCCCC1C(c2ccc(F)cc2)=NN(c2ccccc2)C1(C)C(=O)NCC1CCCCC1 (stereo not drawn) [Compound 51, 4-butyl-N-(cyclohexylmethyl)-3-(4-fluorophenyl)-5-methyl-1-phenyl-4,5-dihydro-1H-pyrazole-5-carboxamide], the IC50 (MelJuSo cells; Homo sapiens, MEL-JUSO) is reported as > 2 µM, the IC50 (LOX cells; LOX, 72 h) is reported as > 2 µM and the IC50 (A549 cells; Homo sapiens, A549, 72 h) is reported as > 2 µM.
CCCCC1C(c2ccc(F)cc2)=NN(c2ccccc2)C1(C)C(=O)N(C)Cc1cc(OC)cc(OC)c1 (stereo not drawn) [Compound 52, 4-butyl-N-(3,5-dimethoxybenzyl)-3-(4-fluorophenyl)-N,5-dimethyl-1-phenyl-4,5-dihydro-1H-pyrazole-5-carboxamide] was tested, and the IC50 (MelJuSo cells; Homo sapiens, MEL-JUSO) was > 2 µM, the IC50 (LOX cells; LOX, 72 h) was > 2 µM and the IC50 (A549 cells; Homo sapiens, A549, 72 h) was > 2 µM.
CCCCC1C(c2ccc(Cl)cc2F)=NN(c2ccccc2)C1(C)C(=O)NCCCC(C)(C)CO (stereo not drawn) [Compound 53, 4-butyl-3-(4-chloro-2-fluorophenyl)-N-(5-hydroxy-4,4-dimethylpentyl)-5-methyl-1-phenyl-4,5-dihydro-1H-pyrazole-5-carboxamide] was tested, and the IC50 (MelJuSo cells; Homo sapiens, MEL-JUSO) was > 2 µM, the IC50 (LOX cells; LOX, 72 h) was > 2 µM and the IC50 (A549 cells; Homo sapiens, A549, 72 h) was > 2 µM.
With CCCCC1C(c2ccc(Cl)cc2F)=NN(c2ccccc2)C1(C)C(=O)NCCOC (stereo not drawn) [Compound 54, 4-butyl-3-(4-chloro-2-fluorophenyl)-N-(2-methoxyethyl)-5-methyl-1-phenyl-4,5-dihydro-1H-pyrazole-5-carboxamide] the IC50 (MelJuSo cells; Homo sapiens, MEL-JUSO) was > 2 µM, the IC50 (LOX cells; LOX, 72 h) was > 2 µM and the IC50 (A549 cells; Homo sapiens, A549, 72 h) was > 2 µM.
For CCCCC1C(c2ccc(F)cc2)=NN(c2cccc(C)c2)C1(C)C(=O)NCCOC (stereo not drawn) [Compound 55, 4-butyl-3-(4-fluorophenyl)-N-(2-methoxyethyl)-5-methyl-1-m-tolyl-4,5-dihydro-1H-pyrazole-5-carboxamide], the IC50 (MelJuSo cells; Homo sapiens, MEL-JUSO) was < 0.25 µM, the IC50 (LOX cells; LOX, 72 h) was < 0.25 µM and the IC50 (A549 cells; Homo sapiens, A549, 72 h) was 0.25 to 0.5 µM.
In the case of CCCCC1C(c2ccc(F)cc2F)=NN(c2ccccc2)C1(C)C(=O)NCCCC(C)(C)CO (stereo not drawn) [Compound 56, 4-butyl-3-(2,4-difluorophenyl)-N-(5-hydroxy-4,4-dimethylpentyl)-5-methyl-1-phenyl-4,5-dihydro-1H-pyrazole-5-carboxamide], the IC50 (MelJuSo cells; Homo sapiens, MEL-JUSO) is reported as 0.5 to 1 µM, the IC50 (LOX cells; LOX, 72 h) is reported as 1 to 2 µM and the IC50 (A549 cells; Homo sapiens, A549, 72 h) is reported as > 2 µM.
CCCCC1C(c2ccc(F)cc2F)=NN(c2ccccc2)C1(C)C(=O)NCCOC (stereo not drawn) [Compound 57, 4-butyl-3-(2,4-difluorophenyl)-N-(2-methoxyethyl)-5-methyl-1-phenyl-4,5-dihydro-1H-pyrazole-5-carboxamide] was tested, and the IC50 (MelJuSo cells; Homo sapiens, MEL-JUSO) was 0.5 to 1 µM, the IC50 (LOX cells; LOX, 72 h) was 0.5 to 1 µM and the IC50 (A549 cells; Homo sapiens, A549, 72 h) was 1 to 2 µM.
CCCCC1C(c2ccc(Cl)cc2)=NN(c2ccccc2)C1(C)C(=O)NCCOC (stereo not drawn) [Compound 58, 4-butyl-3-(4-chlorophenyl)-N-(2-methoxyethyl)-5-methyl-1-phenyl-4,5-dihydro-1H-pyrazole-5-carboxamide] was tested, and the IC50 (MelJuSo cells; Homo sapiens, MEL-JUSO) was 1 to 2 µM, the IC50 (LOX cells; LOX, 72 h) was 1 to 2 µM and the IC50 (A549 cells; Homo sapiens, A549, 72 h) was > 2 µM.
CCCCC1C(c2ccc(F)cc2)=NN(c2ccc(C)cc2)C1(C)C(=O)NCCOC (stereo not drawn) [Compound 59, 4-butyl-3-(4-fluorophenyl)-N-(2-methoxyethyl)-5-methyl-1-p-tolyl-4,5-dihydro-1H-pyrazole-5-carboxamide] was tested, and the IC50 (MelJuSo cells; Homo sapiens, MEL-JUSO) was < 0.25 µM, the IC50 (LOX cells; LOX, 72 h) was < 0.25 µM and the IC50 (A549 cells; Homo sapiens, A549, 72 h) was 0.25 to 0.5 µM.
COCCNC(=O)C1(C)C(c2cccs2)C(c2ccc(F)cc2)=NN1c1ccc(F)cc1F (stereo not drawn) [Compound 60, 1-(2,4-difluorophenyl)-3-(4-fluorophenyl)-N-(2-methoxyethyl)-5-methyl-4-(thiophen-2-yl)-4,5-dihydro-1H-pyrazole-5-carboxamide] was tested, and the IC50 (MelJuSo cells; Homo sapiens, MEL-JUSO) was < 0.25 µM, the IC50 (LOX cells; LOX, 72 h) was < 0.25 µM and the IC50 (A549 cells; Homo sapiens, A549, 72 h) was 0.25 to 0.5 µM.
CCCCC1C(c2ccc(F)cc2)=NN(c2cccc(C)c2)C1(C)C(=O)NCCCC(C)(C)CO (stereo not drawn) [Compound 61, 4-butyl-3-(4-fluorophenyl)-N-(5-hydroxy-4,4-dimethylpentyl)-5-methyl-1-m-tolyl-4,5-dihydro-1H-pyrazole-5-carboxamide] was tested, and the IC50 (MelJuSo cells; Homo sapiens, MEL-JUSO) was 0.5 to 1 µM, the IC50 (LOX cells; LOX, 72 h) was 1 to 2 µM and the IC50 (A549 cells; Homo sapiens, A549, 72 h) was > 2 µM.
For CCCCC1C(c2ccc(F)cc2)=NN(c2ccc(C)cc2)C1(C)C(=O)NCCCC(C)(C)CO (stereo not drawn) [Compound 62, 4-butyl-3-(4-fluorophenyl)-N-(5-hydroxy-4,4-dimethylpentyl)-5-methyl-1-p-tolyl-4,5-dihydro-1H-pyrazole-5-carboxamide], the IC50 (MelJuSo cells) was 0.25 to 0.5 µM, the IC50 (LOX cells) was 0.5 to 1 µM and the IC50 (A549 cells) was > 2 µM.
In the case of COCCNC(=O)C1(C)C(c2cccs2)C(c2ccc(F)cc2)=NN1c1ccc(C)cc1 (stereo not drawn) [Compound 63, 3-(4-fluorophenyl)-N-(2-methoxyethyl)-5-methyl-4-(thiophen-2-yl)-1-p-tolyl-4,5-dihydro-1H-pyrazole-5-carboxamide], the IC50 (MelJuSo cells; Homo sapiens, MEL-JUSO) is reported as < 0.25 µM, the IC50 (LOX cells; LOX, 72 h) is reported as < 0.25 µM and the IC50 (A549 cells; Homo sapiens, A549, 72 h) is reported as 0.25 to 0.5 µM.
CCCCC1C(c2ccc(F)cc2)=NN(c2ccc(Cl)cc2F)C1(C)C(=O)NCCOC (stereo not drawn) [Compound 64, 4-butyl-1-(4-chloro-2-fluorophenyl)-3-(4-fluorophenyl)-N-(2-methoxyethyl)-5-methyl-4,5-dihydro-1H-pyrazole-5-carboxamide] was tested, and the IC50 (MelJuSo cells; Homo sapiens, MEL-JUSO) was < 0.25 µM, the IC50 (LOX cells; LOX, 72 h) was < 0.25 µM and the IC50 (A549 cells; Homo sapiens, A549, 72 h) was 0.25 to 0.5 µM.
For CCCCC1C(c2ccc(F)cc2)=NN(c2ccccc2)C1(C)C(=O)NCCCN1CCOCC1 (stereo not drawn) [Compound 65, 4-butyl-3-(4-fluorophenyl)-5-methyl-N-(3-morpholinopropyl)-1-phenyl-4,5-dihydro-1H-pyrazole-5-carboxamide], the IC50 (MelJuSo cells; Homo sapiens, MEL-JUSO) was > 2 µM, the IC50 (LOX cells; LOX, 72 h) was > 2 µM and the IC50 (A549 cells; Homo sapiens, A549, 72 h) was > 2 µM.
In the case of CCCCC1C(c2ccc(F)cc2)=NN(c2ccccc2)C1(C)C(=O)NCc1ccc(O)c(OC)c1 (stereo not drawn) [Compound 66, 4-butyl-3-(4-fluorophenyl)-N-(4-hydroxy-3-methoxybenzyl)-5-methyl-1-phenyl-4,5-dihydro-1H-pyrazole-5-carboxamide], the IC50 (MelJuSo cells; Homo sapiens, MEL-JUSO) is reported as > 2 µM, the IC50 (LOX cells; LOX, 72 h) is reported as > 2 µM and the IC50 (A549 cells; Homo sapiens, A549, 72 h) is reported as > 2 µM.
With CCCCC1C(c2ccc(F)cc2)=NN(c2ccccc2)C1(C)C(=O)NCc1cccs1 (stereo not drawn) [Compound 67, 4-butyl-3-(4-fluorophenyl)-5-methyl-1-phenyl-N-(thiophen-2-ylmethyl)-4,5-dihydro-1H-pyrazole-5-carboxamide] the IC50 (MelJuSo cells; Homo sapiens, MEL-JUSO) was > 2 µM, the IC50 (LOX cells; LOX, 72 h) was > 2 µM and the IC50 (A549 cells; Homo sapiens, A549, 72 h) was > 2 µM.
In the case of CCCCC1C(c2ccc(F)cc2)=NN(c2ccccc2)C1(C)C(=O)NCC1CCCCO1 (stereo not drawn) [Compound 68, 4-butyl-3-(4-fluorophenyl)-5-methyl-1-phenyl-N-((tetrahydro-2H-pyran-2-yl)methyl)-4,5-dihydro-1H-pyrazole-5-carboxamide], the IC50 (MelJuSo cells; Homo sapiens, MEL-JUSO) is reported as 0.5 to 1 µM, the IC50 (LOX cells; LOX, 72 h) is reported as 1 to 2 µM and the IC50 (A549 cells; Homo sapiens, A549, 72 h) is reported as > 2 µM.
CCCCC1C(c2ccc(F)cc2)=NN(c2ccccc2)C1(C)C(=O)NC(C)c1ccc(S(C)(=O)=O)cc1 (stereo not drawn) [Compound 69, 4-butyl-3-(4-fluorophenyl)-5-methyl-N-(1-(4-(methylsulfonyl)phenyl)ethyl)-1-phenyl-4,5-dihydro-1H-pyrazole-5-carboxamide] was tested, and the IC50 (MelJuSo cells; Homo sapiens, MEL-JUSO) was > 2 µM, the IC50 (LOX cells; LOX, 72 h) was > 2 µM and the IC50 (A549 cells; Homo sapiens, A549, 72 h) was > 2 µM.
In the case of CCCCC1C(c2ccc(F)cc2)=NN(c2ccccc2)C1(C)C(=O)NCCF (stereo not drawn) [Compound 70, 4-butyl-N-(2-fluoroethyl)-3-(4-fluorophenyl)-5-methyl-1-phenyl-4,5-dihydro-1H-pyrazole-5-carboxamide], the IC50 (MelJuSo cells; Homo sapiens, MEL-JUSO) is reported as 0.5 to 1 µM, the IC50 (LOX cells; LOX, 72 h) is reported as 1 to 2 µM and the IC50 (A549 cells; Homo sapiens, A549, 72 h) is reported as > 2 µM.
With CCCCC1C(c2ccc(F)cc2)=NN(c2ccccc2)C1(C)C(=O)NCCCN1CCCCC1 (stereo not drawn) [Compound 71, 4-butyl-3-(4-fluorophenyl)-5-methyl-1-phenyl-N-(3-(piperidin-1-yl)propyl)-4,5-dihydro-1H-pyrazole-5-carboxamide] the IC50 (MelJuSo cells; Homo sapiens, MEL-JUSO) was > 2 µM, the IC50 (LOX cells; LOX, 72 h) was > 2 µM and the IC50 (A549 cells; Homo sapiens, A549, 72 h) was > 2 µM.
With CCCCC1C(c2ccc(F)cc2)=NN(c2ccccc2)C1(C)C(=O)NCC(C)(C)C (stereo not drawn) [Compound 72, 4-butyl-3-(4-fluorophenyl)-5-methyl-N-neopentyl-1-phenyl-4,5-dihydro-1H-pyrazole-5-carboxamide] the IC50 (MelJuSo cells; Homo sapiens, MEL-JUSO) was > 2 µM, the IC50 (LOX cells; LOX, 72 h) was > 2 µM and the IC50 (A549 cells; Homo sapiens, A549, 72 h) was > 2 µM.
In the case of CCCCC1C(c2ccc(F)cc2)=NN(c2ccccc2)C1(C)C(=O)NCC1CC1 (stereo not drawn) [Compound 73, 4-butyl-N-(cyclopropylmethyl)-3-(4-fluorophenyl)-5-methyl-1-phenyl-4,5-dihydro-1H-pyrazole-5-carboxamide], the IC50 (MelJuSo cells; Homo sapiens, MEL-JUSO) is reported as 1 to 2 µM, the IC50 (LOX cells; LOX, 72 h) is reported as 1 to 2 µM and the IC50 (A549 cells; Homo sapiens, A549, 72 h) is reported as > 2 µM.
With CCCCC1C(c2ccc(F)cc2)=NN(c2ccccc2)C1(C)C(=O)NCC(C)(C)N(C)C (stereo not drawn) [Compound 74, 4-butyl-N-(2-(dimethylamino)-2-methylpropyl)-3-(4-fluorophenyl)-5-methyl-1-phenyl-4,5-dihydro-1H-pyrazole-5-carboxamide] the IC50 (MelJuSo cells; Homo sapiens, MEL-JUSO) was > 2 µM, the IC50 (LOX cells; LOX, 72 h) was > 2 µM and the IC50 (A549 cells; Homo sapiens, A549, 72 h) was > 2 µM.
With CCCCC1C(c2ccc(F)cc2)=NN(c2ccccc2)C1(C)C(=O)NCCC(C)N(C)C (stereo not drawn) [Compound 75, 4-butyl-N-(3-(dimethylamino)butyl)-3-(4-fluorophenyl)-5-methyl-1-phenyl-4,5-dihydro-1H-pyrazole-5-carboxamide] the IC50 (MelJuSo cells; Homo sapiens, MEL-JUSO) was > 2 µM, the IC50 (LOX cells; LOX, 72 h) was > 2 µM and the IC50 (A549 cells; Homo sapiens, A549, 72 h) was 0.5 to 1 µM.
CCCCC1C(c2ccc(F)cc2)=NN(c2ccccc2)C1(C)C(=O)NCC(C)N(C)C (stereo not drawn) [Compound 76, 4-butyl-N-(2-(dimethylamino)propyl)-3-(4-fluorophenyl)-5-methyl-1-phenyl-4,5-dihydro-1H-pyrazole-5-carboxamide] was tested, and the IC50 (MelJuSo cells; Homo sapiens, MEL-JUSO) was > 2 µM, the IC50 (LOX cells; LOX, 72 h) was > 2 µM and the IC50 (A549 cells; Homo sapiens, A549, 72 h) was > 2 µM.
With CCCCC1C(c2ccc(F)cc2)=NN(c2ccccc2)C1(C)C(=O)NCC(C)CN(C)C (stereo not drawn) [Compound 77, 4-butyl-N-(3-(dimethylamino)-2-methylpropyl)-3-(4-fluorophenyl)-5-methyl-1-phenyl-4,5-dihydro-1H-pyrazole-5-carboxamide] the IC50 (MelJuSo cells; Homo sapiens, MEL-JUSO) was > 2 µM, the IC50 (LOX cells; LOX, 72 h) was > 2 µM and the IC50 (A549 cells; Homo sapiens, A549, 72 h) was 0.25 to 0.5 µM.
